Patent US4483869A, “Thiocarnitines, process for their preparation and pharmaceutical compositions containing same” (Sigma-Tau Industrie Farmaceutiche Riunite S.p.A., priority 1980, dated 1984)
Where a name gives a salt, the structure may show the parent alone.

Legend:
[1] = Acute toxicity in the mouse, Weil's method; details: in vivo, ip
Excerpt: The acute toxicity of the compounds of general formula (I) has been studied in the mouse with the Weil method (Weil C. S., Biometr. J. 8, 249, 1952).
The LD50 values of some compounds illustrated in Table I, indicate that the compounds are remarkably well tolerated.
LD50, mg Kg^-1, ep in mouse of some thiocarnitines of general
formula (I). Weil's method (N = 5, K = 4) Cl = hydrochloride

rats = assay: Protection against X-ray exposure in rats (survival after irradiation); type: in vivo, Albino Wister rats; details: 20-25 mg Kg^-1 1 hour before irradiation; for Percentage of surviving animals, day 10: 10 days from irradiation, control 90; for Percentage of surviving animals, day 20: 20 days from irradiation, control 20; for Percentage of surviving animals, day 30: 30 days from irradiation, control 10
Protocol: The effect of the compounds of formula (I) towards the damages provoked by X-ray exposure was studied.
The experiment animals, Albino Wister rats, treated with the compounds under examination (20-25 mg Kg^-1 1 hour before irradiation) were irradiated and checked over a time period to detect the onset of toxic effects and the time of survival with respect to the control group. […]
Protective effect of some thiocarnitines of general
formula (I) towards the damage provoked by irradiation
in rats. Percentage of surviving animals at
various days from irradiation.

rabbit = assay: Cutaneous regeneration from burns in the rabbit; type: in vivo; details: 20 mg Kg^-1 orally once a day for seven days; for Percentage of regenerated tissue, 4th day: control 20; for Percentage of regenerated tissue, 8th day: control 50
Protocol: The ability of the compounds of formula (I) to speed up the cutaneous regeneration from burns has been tested in the rabbit.
A 4 cm^2 cutaneous area of the average-top zone of the test animal back was burned.
The compounds were orally administered in aqueous solution at the dose of 20 mg Kg^-1 once a day for seven days. The area of cutaneous regeneration i.e. the area of the newly formed tissue, was then measured (Table III).
Effect of compounds of formula (I) on cutaneous
regeneration. Percentage of regenerated tissue at the 4th
and 8th day from treatment.

[2] = Hygroscopicity and stability to the atmosphere of the isolated product; type: physicochemical; details: for hygroscopicity: isolated product
acetylcholine = assay: Formation of acetylcholine
[3] = Crossing of the blood-brain barrier
CoA = assay: Transfer of the acetyl group to CoA / acyl group donor; type: biochemical
[4] = "ep" route, Weil's method (N = 5, K = 4)

## CCC(CC)C(=O)SC(CC(=O)O)C[N+](C)(C)C (centres unmarked) [S--diethylacetyl thiocarnitine Cl, S-diethylacetyl thiocarnitine]
[1]; [4]
  LD50: 295 mg/kg
rats
  Percentage of surviving animals, day 10: 80 Percentage
  Percentage of surviving animals, day 20: 60 Percentage
  Percentage of surviving animals, day 30: 30 Percentage
rabbit
  Percentage of regenerated tissue, 4th day: 50 Percentage
  Percentage of regenerated tissue, 8th day: 60 Percentage
[2]
  hygroscopicity: highly hygroscopic

## CC(=O)SC(CC(=O)O)C[N+](C)(C)C (centres unmarked) [S--acetyl thiocarnitine Cl, S-acetyl thiocarnitine hydrochloride]
[1]; [4]
  LD50: 294 mg/kg
rats
  Percentage of surviving animals, day 10: 100 Percentage
  Percentage of surviving animals, day 20: 70 Percentage
  Percentage of surviving animals, day 30: 60 Percentage
rabbit
  Percentage of regenerated tissue, 4th day: 50 Percentage
  Percentage of regenerated tissue, 8th day: 90 Percentage
acetylcholine
  formation of acetylcholine: promotes the formation of acetylcholine
[3]
  ability to cross the blood-brain barrier: able to cross the blood-brain barrier
CoA
  acyl group donor activity: potent acyl group donor
CoA; in the absence of CoA carnitine acetyl transferase
  transfer of the acetyl group to CoA: able to transfer the acetyl group to CoA directly even in the absence of the enzyme

## CCCC(=O)SC(CC(=O)O)C[N+](C)(C)C (centres unmarked) [S--butyryl thiocarnitine Cl, S-butyryl thiocarnitine halogenide]
[1]
  LD50: 350 mg/kg
rats
  Percentage of surviving animals, day 10: 90 Percentage
  Percentage of surviving animals, day 20: 40 Percentage
  Percentage of surviving animals, day 30: 40 Percentage
rabbit
  Percentage of regenerated tissue, 4th day: 20 Percentage
  Percentage of regenerated tissue, 8th day: 40 Percentage

## CC(O)CC(=O)SC(CC(=O)O)C[N+](C)(C)C (stereo not drawn) [S--hydroxybutyryl thiocarnitine Cl, S-beta hydroxybutyryl thiocarnitine]
[1]; [4]
  LD50: 300 mg/kg
rats
  Percentage of surviving animals, day 10: 100 Percentage
  Percentage of surviving animals, day 20: 80 Percentage
  Percentage of surviving animals, day 30: 60 Percentage
rabbit
  Percentage of regenerated tissue, 4th day: 30 Percentage
  Percentage of regenerated tissue, 8th day: 60 Percentage
[2]
  hygroscopicity: very hygroscopic

## CCCC(CCC)C(=O)SC(CC(=O)O)C[N+](C)(C)C (centres unmarked) [S--dipropylacetyl thiocarnitine Cl, S-dipropylacetil thiocarnitine hydrochloride]
[1]
  LD50: 350 mg/kg
rats
  Percentage of surviving animals, day 10: 90 Percentage
  Percentage of surviving animals, day 20: 70 Percentage
  Percentage of surviving animals, day 30: 50 Percentage
rabbit
  Percentage of regenerated tissue, 4th day: 50 Percentage
  Percentage of regenerated tissue, 8th day: 100 Percentage

## CCC(=O)SC(CC(=O)O)C[N+](C)(C)C (centres unmarked) [S--propionyl thiocarnitine Cl, S-propionyl thiocarnitine halogenide]
[1]
  LD50: 302 mg/kg
rats
  Percentage of surviving animals, day 10: 90 Percentage
  Percentage of surviving animals, day 20: 70 Percentage
  Percentage of surviving animals, day 30: 50 Percentage
rabbit
  Percentage of regenerated tissue, 4th day: 30 Percentage
  Percentage of regenerated tissue, 8th day: 70 Percentage

## C[N+](C)(C)CC(S)CC(=O)O (centres unmarked) [Thiocarnitine, thiocarnitine hydrochloride]
[1]; [4]
  LD50: 150 mg/kg
rats
  Percentage of surviving animals, day 10: 95 Percentage
  Percentage of surviving animals, day 20: 60 Percentage
  Percentage of surviving animals, day 30: 50 Percentage
rabbit
  Percentage of regenerated tissue, 4th day: 40 Percentage
  Percentage of regenerated tissue, 8th day: 90 Percentage
[2]; exposure to the atmosphere
  stability upon exposure to the atmosphere: darkened upon exposure to the atmosphere
[2]
  hygroscopicity: very hygroscopic
